Measured values published in patent publication US8497240B2 (priority 2006, dated 2013).
Where two headings read alike, the source gives them in different places.

Legend:
[1] = type: in vivo, NIH/Swiss mice; conditions: 80 nmol/kg, AUC240
Experimental: (§1) In FIG. 3A, bars represent mean±sd, n=6-10. […] Gavage (1.5 g/kg) was given at t=0, Sample was taken at t=30 min. […] In FIG. 3B, points represent mean±sem, n=8-15.
Points represent mean±sem.

[2] = type: in vivo, NIH/Swiss mice
Experimental: as §1
Peptide was injected IP at t=−5 minutes into 4-hour fasted NIH/Swiss female mice. […] In FIG. 17 points represent mean+/−sem. […] Samples were taken at t=60, t=120 and t=180.

Row | Structure (SMILES) | Basal Glucose Lowering at Peptide Conc. of 80 nmol/kg [1] | OGTT/GL (%) ([2]; 30 nmol/kg) | OGTT/GL (%) ([2]; 350 nmol/kg)
1 | CC[C@H](C)[C@H](NC(=O)[C@H](CO)NC(=O)[C@H](Cc1ccc(O)cc1)NC(=O)[C@H](CC(=O)O)NC(=O)[C@H](CO)NC(=O)[C@@H](NC(=O)[C@H](Cc1ccccc1)NC(=O)[C@@H](NC(=O)CNC(=O)[C@H](CCC(=O)O)NC(=O)[C@@H](C)NC(=O)[C@@H](N)Cc1ccc(O)cc1)[C@@H](C)O)[C@@H](C)CC)C(=O)N[C@@H](C)C(=O)N[C@@H](CCSC)C(=O)N[C@@H](CC(=O)O)C(=O)N[C@@H](CCCCN)C(=O)N[C@H](C(=O)N[C@@H](Cc1c[nH]cn1)C(=O)N[C@@H](CCC(N)=O)C(=O)N[C@@H](CCC(N)=O)C(=O)N[C@@H](CC(=O)O)C(=O)N[C@@H](Cc1ccccc1)C(=O)N[C@H](C(=O)N[C@@H](CC(N)=O)C(=O)N[C@@H](Cc1c[nH]c2ccccc12)C(=O)N[C@@H](CC(C)C)C(=O)N[C@@H](CC(C)C)C(=O)N[C@@H](C)C(=O)N[C@@H](CCC(N)=O)C(=O)N[C@@H](CCCCN)C(=O)N1CCC[C@H]1C(=O)N[C@@H](CCCCN)C(=O)N[C@@H](CC(C)C)C(=O)N[C@H](C(=O)N[C@@H](CCCCN)C(=O)N[C@@H](CC(C)C)C(=O)N[C@H](C(=O)N[C@@H](CCCCN)C(=O)N[C@@H](CO)C(N)=O)[C@@H](C)CC)[C@@H](C)CC)C(C)C)[C@@H](C)CC [0601GIP4346] | −10%, AUC240 | −20, 30% | –
2 | CC[C@H](C)[C@H](NC(=O)[C@H](CO)NC(=O)[C@H](Cc1ccc(O)cc1)NC(=O)[C@H](CC(=O)O)NC(=O)[C@H](CO)NC(=O)[C@@H](NC(=O)[C@H](Cc1ccccc1)NC(=O)[C@@H](NC(=O)CNC(=O)[C@H](CCC(=O)O)NC(=O)[C@@H](C)NC(=O)[C@@H](N)Cc1ccc(O)cc1)[C@@H](C)O)[C@@H](C)CC)C(=O)N[C@@H](C)C(=O)N[C@@H](CCSC)C(=O)N[C@@H](CC(=O)O)C(=O)N[C@@H](CCCCN)C(=O)N[C@H](C(=O)N[C@@H](Cc1c[nH]cn1)C(=O)N[C@@H](CCC(N)=O)C(=O)N[C@@H](CCC(N)=O)C(=O)N[C@@H](CC(=O)O)C(=O)N[C@@H](Cc1ccccc1)C(=O)N[C@H](C(=O)N[C@@H](CC(N)=O)C(=O)N[C@@H](Cc1c[nH]c2ccccc12)C(=O)N[C@@H](CC(C)C)C(=O)N[C@@H](CC(C)C)C(=O)N[C@@H](C)C(=O)N[C@@H](CCC(N)=O)C(=O)N[C@@H](CCCCN)C(=O)N1CCC[C@H]1C(=O)N[C@@H](CO)C(=O)N[C@@H](CO)C(=O)NCC(=O)N[C@@H](C)C(=O)N1CCC[C@H]1C(=O)NCC(=O)N1CCC[C@H]1C(=O)N[C@@H](CO)C(N)=O)C(C)C)[C@@H](C)CC [Compound 0601GIP4952] | −1, % | −21, % | –
3 | CC[C@H](C)[C@H](NC(=O)[C@H](CO)NC(=O)[C@H](Cc1ccc(O)cc1)NC(=O)[C@H](CC(=O)O)NC(=O)[C@H](CO)NC(=O)[C@@H](NC(=O)[C@H](Cc1ccccc1)NC(=O)[C@@H](NC(=O)CNC(=O)[C@H](CCC(=O)O)NC(=O)[C@@H](C)NC(=O)[C@H](Cc1ccc(O)cc1)NC)[C@@H](C)O)[C@@H](C)CC)C(=O)N[C@@H](C)C(=O)N[C@@H](CCSC)C(=O)N[C@@H](CC(=O)O)C(=O)N[C@@H](CCCCN)C(=O)N[C@H](C(=O)N[C@@H](Cc1c[nH]cn1)C(=O)N[C@@H](CCC(N)=O)C(=O)N[C@@H](CCC(N)=O)C(=O)N[C@@H](CC(=O)O)C(=O)N[C@@H](Cc1ccccc1)C(=O)N[C@H](C(=O)N[C@@H](CC(N)=O)C(=O)N[C@@H](Cc1c[nH]c2ccccc12)C(=O)N[C@@H](CC(C)C)C(=O)N[C@@H](CC(C)C)C(=O)N[C@@H](C)C(=O)N[C@@H](CCC(N)=O)C(=O)N[C@@H](CCCCN)C(=O)N1CCC[C@H]1C(=O)N[C@@H](CO)C(=O)N[C@@H](CO)C(=O)NCC(=O)N[C@@H](C)C(=O)N1CCC[C@H]1C(=O)N1CCC[C@H]1C(=O)N1CCC[C@H]1C(=O)N[C@@H](CO)C(N)=O)C(C)C)[C@@H](C)CC [Compound 0601GIP4238] | −6%, AUC240 | – | −25
